Test results as given in PubChem BioAssay AID248 (DTP/NCI, 2004).
Where “and” joins values, the source holds several entries; their conditions need not be identical. Equal values may be shown once. Toxic doses and inconclusive results are not listed. Cut-off read from the data, not from the text of the source: active = T/C of 150% or more; inactive = T/C below 125%.

Tested on: L1210 leukemia ip in BDF1 mice, survival T/C
Assay: NCI In Vivo Anticancer Drug Screen. Data for tumor model L1210 Leukemia (intraperitoneal) in B6D2F1 (BDF1) mice
Conditions: endpoint: mean survival time, higher = longer survival
Method in brief: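 In this screen, tumor-bearing mice given compound are compared to those given vehicle, and their survival values are reported as a treated-to-control quotient.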

[1] = dose: 50.0 mg/kg/injection, schedule: Q01DX009 (ip), vehicle: Klucel (hydroxypropylcellulose) (HPC)
[2] = dose: 100.0 mg/kg/injection, schedule: Q01DX009 (ip), vehicle: Klucel (hydroxypropylcellulose) (HPC)
[3] = dose: 100.0 mg/kg/injection, schedule: Q04DX003 (ip), vehicle: Klucel (hydroxypropylcellulose) (HPC)
[4] = dose: 200.0 mg/kg/injection, schedule: Q01DX009 (ip), vehicle: Klucel (hydroxypropylcellulose) (HPC)
[5] = dose: 200.0 mg/kg/injection, schedule: Q04DX003 (ip), vehicle: Klucel (hydroxypropylcellulose) (HPC)
[6] = dose: 100.0 mg/kg/injection, schedule: Q04DX002 (ip), vehicle: saline
[7] = dose: 100.0 mg/kg/injection, schedule: Q01DX001 (ip), vehicle: saline
[8] = dose: 200.0 mg/kg/injection, schedule: Q01DX001 (ip), vehicle: saline
[9] = dose: 400.0 mg/kg/injection, schedule: Q01DX001 (ip), vehicle: saline

Measured: T/C

c1cc2c(cc1NC1=NCCO1)CCC2
inactive: dose: 6.25 mg/kg/injection, schedule: Q01DX009 (ip), vehicle: saline with Tween-80 107 % of control | dose: 12.5 mg/kg/injection, schedule: Q01DX009 (ip), vehicle: saline with Tween-80 95 % of control | dose: 25.0 mg/kg/injection, schedule: Q01DX009 (ip), vehicle: saline with Tween-80 114 % of control

O=C(O)C(Cc1cc(I)c(O)c(I)c1)c1ccccc1 (stereo not given)
inactive: [1] 98 % of control | [2] 97 % of control | [3] 100 % of control | [4] 101 % of control | [5] 100 % of control

CC(=O)OCC1OC(n2ccc3c(=O)[nH]cnc32)C(OC(C)=O)C1OC(C)=O (stereo not given)
inactive: dose: 25.0 mg/kg/injection, schedule: Q01DX015 (ip), vehicle: carboxymethylcellulose (CMC) 121 % of control | dose: 50.0 mg/kg/injection, schedule: Q01DX001 (ip), vehicle: carboxymethylcellulose (CMC) 94 % of control | dose: 50.0 mg/kg/injection, schedule: Q01DX015 (ip), vehicle: carboxymethylcellulose (CMC) 112 % of control | dose: 100.0 mg/kg/injection, schedule: Q01DX001 (ip), vehicle: carboxymethylcellulose (CMC) 96 % of control | dose: 200.0 mg/kg/injection, schedule: Q01DX001 (ip), vehicle: carboxymethylcellulose (CMC) 100 % of control | dose: 400.0 mg/kg/injection, schedule: Q01DX001 (ip), vehicle: carboxymethylcellulose (CMC) 102 % of control

CC(=O)OCc1c(C)[nH]c2ccc(N(C)C)cc2c1=O
inactive: dose: 100.0 mg/kg/injection, schedule: Q01DX009 (ip), vehicle: saline with Tween-80 102 % of control | dose: 200.0 mg/kg/injection, schedule: Q01DX009 (ip), vehicle: saline with Tween-80 112 % of control

O=[N+]([O-])/C=C/C=C/c1ccco1
inactive: dose: 6.25 mg/kg/injection, schedule: Q04DX002 (ip), vehicle: saline with Tween-80 97 % of control | dose: 12.5 mg/kg/injection, schedule: Q04DX002 (ip), vehicle: saline with Tween-80 101 % of control | dose: 25.0 mg/kg/injection, schedule: Q04DX002 (ip), vehicle: saline with Tween-80 97 % of control and 90 % of control

COC1C(C)(C)C2(C)CC[N+]1(Cc1ccccc1)C2 (stereo not given)
inactive: dose: 25.0 mg/kg/injection, schedule: Q04DX002 (ip), vehicle: saline 106 % of control | dose: 50.0 mg/kg/injection, schedule: Q04DX002 (ip), vehicle: saline 97 % of control | [6] 116 % of control

O=C1CN=C(c2ccccc2)c2cc(Cl)ccc2N1
inactive: dose: 25.0 mg/kg/injection, schedule: Q01DX009 (ip), vehicle: Klucel (hydroxypropylcellulose) (HPC) 92 % of control | [1] 94 % of control | [2] 89 % of control | dose: 100.0 mg/kg/injection, schedule: Q04DX002 (ip), vehicle: Klucel (hydroxypropylcellulose) (HPC) 106 % of control | [4] 98 % of control | dose: 200.0 mg/kg/injection, schedule: Q04DX002 (ip), vehicle: Klucel (hydroxypropylcellulose) (HPC) 93 % of control | dose: 400.0 mg/kg/injection, schedule: Q04DX002 (ip), vehicle: Klucel (hydroxypropylcellulose) (HPC) 89 % of control

COc1cc(/C=C(/NC(=O)c2ccccc2)C(=O)O)ccc1O
inactive: [7] 94 % of control | dose: 100.0 mg/kg/injection, schedule: Q04DX003 (ip), vehicle: saline 96 % of control | [8] 89 % of control | dose: 200.0 mg/kg/injection, schedule: Q04DX003 (ip), vehicle: saline 97 % of control | [9] 96 % of control | dose: 400.0 mg/kg/injection, schedule: Q04DX003 (ip), vehicle: saline 88 % of control

CC1CN=C(c2ccc(O)cc2O)S1 (stereo not given)
inactive: [6] 93 % of control | dose: 200.0 mg/kg/injection, schedule: Q04DX002 (ip), vehicle: saline 104 % of control | dose: 400.0 mg/kg/injection, schedule: Q04DX002 (ip), vehicle: saline 96 % of control

COc1ccc(C(=NN=C(N)N)c2ccc(OC)cc2)cc1
inactive: dose: 15.0 mg/kg/injection, schedule: Q01DX Z (ip), vehicle: saline 96 % of control | dose: 30.0 mg/kg/injection, schedule: Q01DX Z (ip), vehicle: saline 100 % of control | dose: 30.0 mg/kg/injection, schedule: Q01DX Z (oral), vehicle: saline 105 % of control | dose: 60.0 mg/kg/injection, schedule: Q01DX Z (ip), vehicle: saline 96 % of control | dose: 60.0 mg/kg/injection, schedule: Q01DX Z (oral), vehicle: saline 97 % of control | dose: 120.0 mg/kg/injection, schedule: Q01DX Z (oral), vehicle: saline 105 % of control | dose: 240.0 mg/kg/injection, schedule: Q01DX Z (oral), vehicle: saline 92 % of control | dose: 480.0 mg/kg/injection, schedule: Q01DX Z (oral), vehicle: saline 94 % of control

CC1(C)CC(=O)c2c(cc(O)c3ccc(=O)oc23)O1
inactive: [2] 96 % of control | [3] 100 % of control | [4] 98 % of control | [5] 104 % of control | dose: 400.0 mg/kg/injection, schedule: Q01DX009 (ip), vehicle: Klucel (hydroxypropylcellulose) (HPC) 91 % of control | dose: 400.0 mg/kg/injection, schedule: Q04DX003 (ip), vehicle: Klucel (hydroxypropylcellulose) (HPC) 96 % of control

O=S(=O)(O)n1nc2ccccc2c1-c1ccccc1
inactive: dose: 100.0 mg/kg/injection, schedule: Q04DX002 (ip), vehicle: saline with Tween-80 96 % of control | dose: 200.0 mg/kg/injection, schedule: Q04DX002 (ip), vehicle: saline with Tween-80 96 % of control

CN1CCN(c2ccc3nnc(Cl)n3n2)CC1
inactive: dose: 50.0 mg/kg/injection, schedule: Q04DX003 (ip), vehicle: saline with Tween-80 97 % of control

COc1cccc(-c2nc3ccccc3s2)c1OC
inactive: dose: 25.0 mg/kg/injection, schedule: Q04DX003 (ip), vehicle: DMSO 88 % of control | dose: 50.0 mg/kg/injection, schedule: Q04DX003 (ip), vehicle: DMSO 95 % of control | dose: 100.0 mg/kg/injection, schedule: Q04DX003 (ip), vehicle: DMSO 92 % of control and 96 % of control

C1=COC(/C=N/Nc2nnc(N/N=C/C3CCC=CO3)c3ccccc23)CC1 (stereo not given)
inactive: dose: 5.0 mg/kg/injection, schedule: Q01DX001 (ip), vehicle: saline 98 % of control | dose: 10.0 mg/kg/injection, schedule: Q01DX001 (ip), vehicle: saline 111 % of control | dose: 20.0 mg/kg/injection, schedule: Q01DX001 (ip), vehicle: saline 96 % of control | dose: 40.0 mg/kg/injection, schedule: Q01DX001 (ip), vehicle: saline 102 % of control

Nc1nnn(CCO)n1
inactive: dose: 100.0 mg/kg/injection, schedule: Q04DX003 (ip), vehicle: saline sonified 105 % of control | dose: 200.0 mg/kg/injection, schedule: Q04DX003 (ip), vehicle: saline sonified 102 % of control | dose: 400.0 mg/kg/injection, schedule: Q04DX003 (ip), vehicle: saline sonified 96 % of control

NC1CCCCC1.[I][Pb]([I])([I])[I]
inactive: dose: 100.0 mg/kg/injection, schedule: Q04DX003 (ip), vehicle: saline with Tween-80 106 % of control | dose: 200.0 mg/kg/injection, schedule: Q04DX003 (ip), vehicle: saline with Tween-80 95 % of control | dose: 400.0 mg/kg/injection, schedule: Q04DX003 (ip), vehicle: saline with Tween-80 96 % of control

Clc1ccc2n[nH]c(Cl)c2c1
inactive: dose: 12.5 mg/kg/injection, schedule: Q01DX009 (ip), vehicle: saline 95 % of control | dose: 25.0 mg/kg/injection, schedule: Q01DX009 (ip), vehicle: saline 101 % of control | dose: 50.0 mg/kg/injection, schedule: Q01DX009 (ip), vehicle: saline 98 % of control | [7] 92 % of control | dose: 100.0 mg/kg/injection, schedule: Q01DX009 (ip), vehicle: saline 96 % of control | [8] 92 % of control | [9] 102 % of control
